Results from ChEMBL document CHEMBL1201862, “PubChem BioAssay data set” (2004).
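Grown in 96-well plates, cells were treated for 48 hours with each compound at five concentrations. Insufficient inhibition: endpoint recorded as highest concentration tested. Abbreviation: GI50, concentration required for 50% inhibition of growth.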 Calls of active or inactive are those of the source. Cut-off read from the data, not from the text of the source: active = GI50 up to about 1.1 µM and inactive = higher.

Legend:
Assay in all cases: NCI-60 cell line screen, 48 h
RXF 393 = system: RXF 393
LOX IMVI = system: LOX IMVI
OVCAR-4 = system: OVCAR-4
UO-31 = system: UO-31
SNB-75 = system: SNB-75
HCT-15 = system: HCT-15
KM12 = system: KM12
UACC-257 = system: UACC-257
SR = system: SR
UACC-62 = system: UACC-62
MDA-MB-231 = system: MDA-MB-231
NCI-H522 = system: NCI-H522
DU-145 = system: DU-145
NCI/ADR-RES = system: NCI/ADR-RES
ACHN = system: ACHN
HL-60 = system: HL-60
Hs-578T = system: Hs-578T
CAKI-1 = system: CAKI-1
T47D = system: T47D
BT-549 = system: BT-549

Compound: COc1cccc(-c2cc(O)c3cc(N4CCCC4)ccc3n2)c1
- GI50 (RXF 393): < 0.001 µM (active)
- GI50 (LOX IMVI): < 0.001 µM (active)
- GI50 (OVCAR-4): 2.67 µM (inactive)
- GI50 (UO-31): < 0.001 µM (active)
- GI50 (SNB-75): < 0.001 µM (active)
- GI50 (HCT-15): 0.00169 µM
- GI50 (KM12): < 0.001 µM (active)
- GI50 (UACC-257): < 0.001 µM (active)
- GI50 (SR): < 0.001 µM (active)
- GI50 (UACC-62): < 0.001 µM (active)
- GI50 (MDA-MB-231): 0.00155 µM (active)
- GI50 (NCI-H522): < 0.001 µM (active)
- GI50 (DU-145): < 0.001 µM (active)
- GI50 (NCI/ADR-RES): < 0.001 µM (active)
- GI50 (ACHN): 0.00113 µM (active)
- GI50 (HL-60): < 0.001 µM (active)
- GI50 (Hs-578T): < 0.001 µM (active)
- GI50 (CAKI-1): < 0.001 µM (active)
- GI50 (T47D): > 10 µM (inactive)

Compound: CN(CCCNC(=O)c1cn(C)c2c1Cc1ccccc1-2)CCCNC(=O)c1cn(C)c2c1Cc1ccccc1-2
- GI50 (RXF 393): 16.8 µM (inactive)
- GI50 (LOX IMVI): 6.82 µM (inactive)
- GI50 (OVCAR-4): 12.8 µM (inactive)
- GI50 (UO-31): 9.16 µM (inactive)
- GI50 (HCT-15): 11.2 µM
- GI50 (KM12): 13 µM (inactive)
- GI50 (UACC-257): 6.12 µM (inactive)
- GI50 (SR): 1.45 µM (inactive)
- GI50 (UACC-62): 13.8 µM (inactive)
- GI50 (MDA-MB-231): 13.6 µM (inactive)
- GI50 (NCI/ADR-RES): 12.5 µM (inactive)
- GI50 (ACHN): 10.5 µM (inactive)
- GI50 (HL-60): 13.3 µM (inactive)
- GI50 (Hs-578T): 5.85 µM (inactive)
- GI50 (CAKI-1): 14.9 µM (inactive)
- GI50 (BT-549): 17.1 µM (inactive)

Compound: CC(C)Oc1c(-c2ccc(F)cc2)c(O)c2c3c1oc(=O)n3C=CC2C (stereo not drawn)
- GI50 (RXF 393): 14 µM (inactive)
- GI50 (LOX IMVI): 14.5 µM (inactive)
- GI50 (OVCAR-4): 10.7 µM (inactive)
- GI50 (UO-31): 12.2 µM (inactive)
- GI50 (SNB-75): 14.8 µM (inactive)
- GI50 (HCT-15): 14.9 µM
- GI50 (KM12): 13.2 µM (inactive)
- GI50 (UACC-257): 13.2 µM (inactive)
- GI50 (UACC-62): 14.6 µM (inactive)
- GI50 (MDA-MB-231): 14.4 µM (inactive)
- GI50 (NCI-H522): 12.1 µM (inactive)
- GI50 (DU-145): 13.1 µM (inactive)
- GI50 (NCI/ADR-RES): 13.8 µM (inactive)
- GI50 (ACHN): 14.5 µM (inactive)
- GI50 (HL-60): 10.4 µM (inactive)
- GI50 (Hs-578T): 20.2 µM (inactive)
- GI50 (CAKI-1): 14.2 µM (inactive)
- GI50 (BT-549): 14 µM (inactive)

Compound: O=C(c1ccc(-c2ccccc2)cc1)N(Cc1cccnc1)C(=S)N(Cc1cccnc1)C(=O)c1ccc(-c2ccccc2)cc1
- GI50 (LOX IMVI): > 100 µM (inactive)
- GI50 (OVCAR-4): 32.7 µM (inactive)
- GI50 (UO-31): 51.9 µM (inactive)
- GI50 (HCT-15): 87.3 µM
- GI50 (KM12): 56.6 µM (inactive)
- GI50 (UACC-257): > 100 µM (inactive)
- GI50 (SR): 0.241 µM (active)
- GI50 (UACC-62): > 100 µM (inactive)
- GI50 (MDA-MB-231): > 100 µM (inactive)
- GI50 (NCI-H522): > 100 µM (inactive)
- GI50 (DU-145): > 100 µM (inactive)
- GI50 (NCI/ADR-RES): > 100 µM (inactive)
- GI50 (ACHN): > 100 µM (inactive)
- GI50 (HL-60): 24.5 µM (inactive)
- GI50 (Hs-578T): > 100 µM (inactive)
- GI50 (CAKI-1): 27.1 µM (inactive)
- GI50 (BT-549): 55 µM (inactive)

Compound: Oc1c([Si](c2ccccc2)(c2ccccc2)c2ccccc2)cc2ccccc2c1-c1c(O)c([Si](c2ccccc2)(c2ccccc2)c2ccccc2)cc2ccccc12
- GI50 (RXF 393): > 100 µM (inactive)
- GI50 (LOX IMVI): > 100 µM (inactive)
- GI50 (OVCAR-4): > 100 µM (inactive)
- GI50 (UO-31): > 100 µM (inactive)
- GI50 (SNB-75): > 100 µM (inactive)
- GI50 (HCT-15): > 100 µM
- GI50 (KM12): > 100 µM (inactive)
- GI50 (UACC-257): > 100 µM (inactive)
- GI50 (SR): > 100 µM (inactive)
- GI50 (UACC-62): > 100 µM (inactive)
- GI50 (MDA-MB-231): > 100 µM (inactive)
- GI50 (NCI-H522): > 100 µM (inactive)
- GI50 (DU-145): > 100 µM (inactive)
- GI50 (NCI/ADR-RES): > 100 µM (inactive)
- GI50 (ACHN): > 100 µM (inactive)
- GI50 (HL-60): > 100 µM (inactive)
- GI50 (Hs-578T): > 100 µM (inactive)
- GI50 (CAKI-1): > 100 µM (inactive)
- GI50 (T47D): > 100 µM (inactive)

Compound: C=CCNC(=S)N/C=C(\C#N)C(N)=O
- GI50 (RXF 393): > 100 µM (inactive)
- GI50 (LOX IMVI): > 100 µM (inactive)
- GI50 (OVCAR-4): > 100 µM (inactive)
- GI50 (UO-31): > 100 µM (inactive)
- GI50 (SNB-75): > 100 µM (inactive)
- GI50 (HCT-15): > 100 µM
- GI50 (KM12): > 100 µM (inactive)
- GI50 (UACC-257): > 100 µM (inactive)
- GI50 (SR): > 100 µM (inactive)
- GI50 (UACC-62): > 100 µM (inactive)
- GI50 (MDA-MB-231): > 100 µM (inactive)
- GI50 (NCI-H522): > 100 µM (inactive)
- GI50 (DU-145): > 100 µM (inactive)
- GI50 (NCI/ADR-RES): > 100 µM (inactive)
- GI50 (ACHN): > 100 µM (inactive)
- GI50 (HL-60): > 100 µM (inactive)
- GI50 (Hs-578T): > 100 µM (inactive)
- GI50 (CAKI-1): > 100 µM (inactive)
- GI50 (T47D): > 100 µM (inactive)
